We go through 1 molecule from article PMC5951806, “Rapid labelling and covalent inhibition of intracellular native proteins using ligand-directed N-acyl-N-alkyl sulfonamide” (Nature Communications, 2018).

Each structure is given as a SMILES string.

Common to all, as to test: TMT LC-MSMS of 11-labelled proteins
Common to all, as to format: cell-based

Assay [1] has as its target T1, Carnitine O-palmitoyltransferase 1, liver isoform (CPT1A) (Homo sapiens, UniProt P50416).
T1 sequence (P50416 1-773): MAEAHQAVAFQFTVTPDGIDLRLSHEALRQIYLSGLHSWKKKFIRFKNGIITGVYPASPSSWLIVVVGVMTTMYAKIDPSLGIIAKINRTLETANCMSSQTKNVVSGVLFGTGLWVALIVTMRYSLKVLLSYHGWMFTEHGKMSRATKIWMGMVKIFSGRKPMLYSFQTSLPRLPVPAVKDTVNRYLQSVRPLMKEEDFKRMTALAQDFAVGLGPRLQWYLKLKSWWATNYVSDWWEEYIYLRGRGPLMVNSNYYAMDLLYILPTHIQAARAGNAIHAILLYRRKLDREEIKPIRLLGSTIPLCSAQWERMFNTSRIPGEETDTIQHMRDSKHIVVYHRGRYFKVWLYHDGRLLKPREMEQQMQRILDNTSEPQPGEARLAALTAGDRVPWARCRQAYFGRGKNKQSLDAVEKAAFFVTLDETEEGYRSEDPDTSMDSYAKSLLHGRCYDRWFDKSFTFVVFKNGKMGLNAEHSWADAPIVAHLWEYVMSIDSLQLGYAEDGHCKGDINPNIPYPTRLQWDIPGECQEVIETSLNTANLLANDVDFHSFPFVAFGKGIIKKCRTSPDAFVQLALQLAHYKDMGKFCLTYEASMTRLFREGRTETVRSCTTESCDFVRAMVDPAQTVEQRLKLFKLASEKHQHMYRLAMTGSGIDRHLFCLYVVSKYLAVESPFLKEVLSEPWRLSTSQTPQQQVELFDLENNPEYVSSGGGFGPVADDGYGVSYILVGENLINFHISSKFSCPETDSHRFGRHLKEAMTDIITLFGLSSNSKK

Assay [2] concerns the target T-complex protein 1 subunit theta (CCT8) (Homo sapiens, UniProt P50990). The settings on record: sheet Exp1, SKBR3 cells.
Assay [3] addresses Tubulin alpha-1B chain (TUBA1B) (Homo sapiens, UniProt P68363).
[4] abbreviates: sheet Exp1, SKBR3 cells, 11 0.5 µM 3 h vs DMSO.
The mark [5] stands for this setting: sheet Exp1, SKBR3 cells, 11 0.5 µM 3 h vs with PU-H71 10 µM.
The mark [6] stands for this setting: sheet Merged, SKBR3 cells, 11 0.5 µM 3 h vs DMSO.
[7] abbreviates: sheet Merged, SKBR3 cells, 11 0.5 µM 3 h vs with PU-H71 10 µM.

Sequence of Tubulin alpha-1B chain (TUBA1B) (P68363 whole entry): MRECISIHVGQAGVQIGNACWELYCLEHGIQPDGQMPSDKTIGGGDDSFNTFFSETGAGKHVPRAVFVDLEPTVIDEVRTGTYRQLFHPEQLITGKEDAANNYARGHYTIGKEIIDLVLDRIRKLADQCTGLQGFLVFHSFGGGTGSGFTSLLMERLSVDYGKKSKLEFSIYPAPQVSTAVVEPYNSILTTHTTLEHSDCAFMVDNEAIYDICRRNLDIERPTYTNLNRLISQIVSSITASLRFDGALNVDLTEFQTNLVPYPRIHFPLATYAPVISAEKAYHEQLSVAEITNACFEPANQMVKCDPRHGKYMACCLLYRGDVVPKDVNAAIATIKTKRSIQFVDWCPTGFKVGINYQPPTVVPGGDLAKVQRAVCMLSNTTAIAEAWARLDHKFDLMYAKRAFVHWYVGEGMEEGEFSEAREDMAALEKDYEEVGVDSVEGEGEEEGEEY
Sequence of Tubulin alpha-1B chain (TUBA1B) (P07437 whole entry partner): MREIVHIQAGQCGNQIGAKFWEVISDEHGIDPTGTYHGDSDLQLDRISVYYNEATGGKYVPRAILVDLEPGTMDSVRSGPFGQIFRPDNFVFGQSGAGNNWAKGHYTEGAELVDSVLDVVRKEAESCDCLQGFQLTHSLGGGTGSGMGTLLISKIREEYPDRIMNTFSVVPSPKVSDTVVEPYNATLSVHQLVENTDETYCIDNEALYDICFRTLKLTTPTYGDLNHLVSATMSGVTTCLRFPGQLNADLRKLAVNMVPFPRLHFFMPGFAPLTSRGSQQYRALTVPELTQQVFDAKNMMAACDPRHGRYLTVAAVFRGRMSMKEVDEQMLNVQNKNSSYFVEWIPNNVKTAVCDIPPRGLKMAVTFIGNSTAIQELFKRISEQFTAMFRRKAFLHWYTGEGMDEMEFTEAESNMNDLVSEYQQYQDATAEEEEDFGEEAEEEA

With `CC(=O)Oc1ccc2c(c1)Oc1cc(OC(C)=O)ccc1C21OC(=O)c2cc(C(=O)NCCOCCOCCNC(=O)CCCC(=O)N(CC#N)S(=O)(=O)c3ccc(C(=O)NCCCn4c(Sc5cc6c(cc5I)OCO6)nc5c(N)ncnc54)cc3)ccc21` [compound 11], the “Abundance Ratio: (11) / (11 with PU-H71)” value is given as 0.719 in assay [1] (Exp3, CPT1A); 0.783 in assay [1] (setting [5]); 0.79 in assay [1] (setting [7]); 0.821 in assay [2] (11 0.5 µM 3 h vs with PU-H71 10 µM); 0.849 in assay [3] (Exp3, TUBA1B); 0.862 in assay [3] (setting [5]). In addition, the “Abundance Ratio: (11) / (11 with PU-H71)” value in assay [3] (sheet Exp2, TUBA1B) is listed as 0.827; in assay [3] (setting [7]) it was 0.862. Further, the “Abundance Ratio: (11) / (DMSO)” value in assay [1] (Exp3, CPT1A) is given as 1.338; in assay [1] (setting [4]), 2.506; in assay [1] (setting [6]), 1.461; in assay [2] (11 0.5 µM 3 h vs DMSO) it was 2.74; in assay [3] (Exp3, TUBA1B), 4.864; in assay [3] (setting [4]), 6.965. The “Abundance Ratio: (11) / (DMSO)” value was 7.231 in assay [3] (sheet Exp2, TUBA1B) and 6.965 in assay [3] (setting [6]). Moreover, the “Abundances (Grouped): 11” value is listed as 20.2 in assay [1] (Exp3, CPT1A); 236.9 in assay [3] (Exp3, TUBA1B); 197.4 in assay [3] (sheet Exp2, TUBA1B). The “Abundances (Grouped): 11 with PU-H71” value came to 28.1 in assay [1] (Exp3, CPT1A, with PU-H71); 279 in assay [3] (Exp3, TUBA1B); 238.8 in assay [3] (sheet Exp2, TUBA1B).
